From patent US11814366B2, “Antiviral compounds and use thereof” (UNIVERSITA DEGLI STUDI DI SIENA, priority 2018, dated 2023) come the findings set out here.

Data set [1] in a line: Cytotoxicity, XTT test. Conditions: human. (Tetrazolium dyes change colour on reduction, which living cells bring about.)
Data set [2] deals with HIV Strain NL4-3. The experiment in a line: HIV-1 inhibition assay, strain NL4-3, TZM-bl cells, CPRG readout. Type of data set: cell-based. The procedure:
The human TZM-bl indicator cell line (obtained from the NIH AIDS reagents program, cat. Nr 8129, www.aidsreagent.org) was maintained at 37° C. and 5% CO2 in Dulbecco's modified Eagle's medium (DMEM) medium containing 10% fetal bovine serum, 50 μg/ml penicillin, and 50 μg/ml streptomycin. The HIV-1 laboratory strains NL (AD8) (NIH AIDS reagents program, cat. Nr, 11346) and NL4.3 (NIH AIDS reagents program, cat. Nr. 114) were titrated as previously reported by Tiberi et al (2014). Briefly, serial 5-fold dilutions of each virus were made in quadruplicate wells in 96-well culture plates, in a total volume of 100 μl of growth medium (DMEM), for a total of 8 dilution steps. Freshly trypsinized cells (20,000 cells in 100 μl of growth medium containing 75 μg/mL DEAE-dextran) were added to each well, and the plates were incubated at 37° C. in a humidified 5% CO2-95% air environment. After 48 h of incubation, the medium was removed and viral infection was quantified using a β-galactosidase (CPRG) assay (Roche). Twenty thousand TZM-bl cells/well were seeded in 96-well plates in complete DMEM supplemented with 30 μg/ml DEAE-dextran (Sigma-Aldrich). Three hundred times the 50% tissue culture infective dose (TCID50)/ml of each strain was pretreated for 1 h at 37° C. with six serial dilutions (10000 nM, 2000 nM, 400 nM, 80 nM, 16 nM, 3.2 nM) and then added to the cells. Vehicle (0.1% dimethyl sulfoxide [DMSO])-treated cells served as a negative control. […] After 2 days, viral infection was quantified using a CPRG assay (Roche cat nr 11379119103). The inhibitory curves were fitted by nonlinear regression, allowing for the calculation of the 50% effective concentration (EC50) using the Prism software. To evaluate the cell toxicity of the compounds, the metabolic XTT [2,3-bis-(2-methoxy-4-nitro-5-sulfophenyl)-2H-tetrazolium-5-carboxanilide] test (Sigma-Aldrich) was performed according to the manufacturer's instructions.

Data set [3] can be described thus: in vitro. Conditions: African green monkey.
The nature of data set [4]: Cell viability (MTS) assay, Huh-7 cells. Type of data set: cell-based. Conditions: human, conditions of the DENV-2 assay (Table 6). As for the experimental part:
Cell viability was measured using the MITS [3-(4,5-dimethylthiazol-2-yl)-5-(3 carboxy methoxy phenyl)-2-(4-sulfophenyl)-2H-tetrazolium] assay. Cell cultures were seeded in 96-well plates and were incubated with different concentrations of compounds of the invention in triplicate under the same experimental conditions described for the antiviral assays. Cell viability was determined using the CellTiter 96 Proliferation Assay Kit (Promega, Madison, WI, USA) according to the manufacturer's instructions. Absorbances were measured using a Microplate Reader (Model 680, BIORAD) at 490 nm. The effect on cell viability at different concentrations of the compound was expressed as a percentage, by comparing absorbances of treated cells with those of cells incubated with culture medium and equal volumes of vehicle. The 50% cytotoxic concentrations (CC50) and 95% confidence intervals (CIs) were determined using Prism software (Graph-Pad Software, San Diego, CA).

Data set [5] relates to ZIKAV. Put plainly: ZIKA virus plaque reduction assay on Vero cells. Type of data set: cell-based, Zika virus (PRVABC59). To be noted: for SI selectivity index: ZIKAV, CC50 divided by EC50; for EC50 / EC90: Zika virus, Vero, ZIKAV infected cells.
A short description of data set [6]: in vitro. To be noted: dog.
Data set [7] relates to DENV-2. The experiment in a line: DENV plaque reduction assay on Huh-7 cells. Type of data set: cell-based, Dengue virus. To be noted: for SI selectivity index: DENV-2, CC50 divided by EC50; for EC50: Dengue virus, DENV2, Huh-7, DENV-2 infected cells. The procedure:
The effect of compounds on DENV infection was evaluated by plaque reduction assay. Huh-7 cells were pre-plated 24 h in advance in 24-well plates at a density of 10^5 cells. Concentrations of compounds ranging from 50 μM to 0.0001 μM in DMSO were mixed with DENV-2 (MOI 0.01 pfu/cell) and incubated for 1 hour at 37° C. The mixtures were subsequently added to the cells, which were then incubated at 37° C. for 2 h. The virus inoculum was then removed and the cells washed and overlaid with a medium containing 1.2% methylcellulose (Sigma). After further incubation at 37° C. for 72 h cells were fixed and stained with 0.1% crystal violet in 20% ethanol and viral plaques counted. The effective concentration producing 50% reduction in plaque formation (EC50) were determined using Prism software by comparing drug-treated wells with wells treated with medium and DMSO. The selectivity index (SI) was calculated by dividing the CC50 by the EC50 value.
On the technique in general: Plaques are areas of infected cells; plaque reduction assays count them against a control.

Data set [8] concerns HSV-2. The experiment in a line: HSV-2 plaque reduction assay on Vero cells. Type of data set: cell-based, Herpes 2 virus (HSV-2). Conditions: for SI selectivity index: HSV-2, CC50 divided by EC50; for EC90 / EC50: Human alphaherpesvirus 2, Vero, HSV-2 infected cells; for EC90: 90% effective concentration; for EC50: compound mixed with virus 1 hour at 37° C.
Data set [9] relates to H1N1. Put plainly: H1N1 inhibition assay on MDCK cells. Type of data set: cell-based, Influenza virus H1N1. Conditions: for SI selectivity index: H1N1, CC50 divided by EC50; for EC50 / EC90: Influenza A virus, MDCK, H1N1 infected cells; for EC50: read-out: EC50; for EC90: read-out: EC90. The procedure:
MDCK cells were pre-plated in 96-well plates. The following day, concentrations of compounds ranging from 50 μM to 0.0001 μM in DMSO were mixed with H1N1 (MOI 0.05 pfu/cell) and incubated for 1 hour at 37° C. The mixtures were subsequently added to the cells for 1 h at 37° C., after a washout, cells were overlaid with MEM for 16 h at 37° C. Cells were then fixed and subjected to specific immunostaining using a Flu A monoclonal antibody (Merck 5001) in order to visualize infected cells. EC50 were calculated by comparing numbers of infected cells in treated and untreated wells. The effective concentration producing 50% reduction in plaque formation (EC50) was determined using Prism software. The selectivity index (SI) was calculated by dividing the CC50 by the EC50 value.

For data set [10], the system named is HIV Strain AD8. The experiment in a line: HIV-1 inhibition assay, strain NL(AD8), TZM-bl cells, CPRG readout. Type of data set: cell-based.
[11] abbreviates: Human immunodeficiency virus 1, NL43, virus pretreated 1 h at 37° C. with compound.
Where [12] appears, read: CC50, conditions of the HSV-2 assay (Table 2).
The mark [13] stands for this setting: CC50, conditions of the ZIKAV assay (Table 3).
[14] abbreviates: virus pretreated 1 h at 37° C. with compound.

Compound `Cc1nnc(C(=O)NC(C)(C)c2nc(C(=O)NCc3ccc(F)cc3)c(O)c(=O)n2C)o1` [Ral, raltegravir, reference compound] had a CC50 in [1] greater than 20 µM. In data set [2] (setting [11]), the concentration giving a half-maximal response (EC50) (in general, the midpoint of the concentration-response curve) came out at 0.021 µM.

For `O=C1NC(=S)N(Cc2ccccc2)C(=O)/C1=C\c1ccc(-c2ccc(C(=O)O)c(O)c2)[nH]1` [Compound 15a, (Z)-4-(5-((1-benzyl-4,6-dioxo-2-thioxotetrahydropyrimidin-5(2H)-ylidene)methyl)-1H-pyrrol-2-yl)-2-hydroxybenzoic Acid], the CC50 in data set [1] was greater than 20 µM. Besides, in data set [2] (setting [11]), the EC50 stood at 0.217 µM.

Take `O=C1NC(=S)N(CCc2ccccc2)C(=O)/C1=C/c1ccc(-c2ccc(-c3nnn[nH]3)cc2)[nH]1` [Compound 15c, (Z)-5-((5-(4-(1H-tetrazol-5-yl)phenyl)-1H-pyrrol-2-yl)methylene)-dihydro-3-henethyl-2-thioxopyrimidine-4,6(1H,5H)-dione]: the CC50 is greater than 300 µM in data set [3] (setting [12]), greater than 300 µM in [3] (setting [13]), 70 µM in [4] and greater than 300 µM in [6]. Also, the SI selectivity index is greater than 12000 in data set [5], 20.6 in data set [7], greater than 1435 in data set [8] and greater than 379 in [9]. Also, the EC50 in data set [5] is 0.0258 µM; in data set [7] it was 3.4 µM; in [8], 0.209 µM; in [9], 0.793 µM. The EC90 (usually the concentration needed for an effect of 90%) in data set [5] came to 0.365 µM; in data set [8], 0.618 µM; in [9] it was 1.76 µM.

Turning to `O=C(O)c1ccc(-c2ccc(/C=C3\SC(=S)N(Cc4ccc(Cl)cc4)C3=O)[nH]2)cc1O` [Compound 7b, (Z)-4-(5-((3-(4-chlorobenzyl)-4-oxo-2-thioxothiazolidin-5-ylidene)methyl)-1H-pyrrol-2-yl)-2-hydroxybenzoic Acid], the EC50 in data set [10] (Human immunodeficiency virus 1, virus pretreated 1 h at 37° C. with compound) worked out at 0.532 µM. In data set [1] (TZM-bl cells), the CC50 is greater than 20 µM.

In [1], `O=C1NC(=S)NC(=O)C1=Cc1ccc(-c2cc(C(F)(F)F)ccc2Cl)[nH]1` [Compound 17a, 5-((5-(2-chloro-5-(trifluoromethyl)phenyl)-1H-pyrrol-2-yl)methylene)-2-thioxodihydropyrimidine-4,6(1H,5H)-dione] gave a CC50 greater than 20 µM.

As to `N#Cc1ccc(-c2ccc(/C=C3\C(=O)NC(=S)N(CCc4ccccc4)C3=O)[nH]2)cc1` [Compound 15d, 4-(5-((Z)-(tetrahydro-4,6-dioxo-3-phenethyl-2-thioxopyrimidin-5(6H)-lidene)methyl)-1H-pyrrol-2-yl)benzonitrile], the CC50 in [3] (setting [12]), in data set [3] (setting [13]) and in data set [6] was greater than 300 µM throughout. Further, the values for the SI selectivity index in [5], in data set [8] and in [9] were greater than 272.7, greater than 8.7 and greater than 12, respectively. Besides, the figures for the EC50 in data set [5], in data set [8] and in data set [9] were 1.11 µM, 34.5 µM and 25 µM, respectively. For the same compound, the results for the EC90 in data set [5], in data set [8] and in [9] were 26.6 µM, 88.2 µM and 372 µM, respectively.

In data set [4], `O=C1NC(=S)N(Cc2ccccn2)C(=O)/C1=C\c1ccc(-c2ccc(-c3nnn[nH]3)cc2)[nH]1` [Compound 15p, (Z)-5-((5-(4-(1H-tetrazol-5-yl)phenyl)-1H-pyrrol-2-yl)methylene)-1-(pyridin-2-ylmethyl)-2-thioxodihydropyrimidine-4,6(1H,5H)-dione] gave a CC50 of 89 µM. Also, in data set [7], the SI selectivity index is 7.3 and the EC50 was 12.2 µM.

`O=C1NC(=S)NC(=O)C1=Cc1ccc(-c2ccc(C(=O)O)c(O)c2)[nH]1` [Compound 17b, 4-(5-((4,6-dioxo-2-thioxotetrahydropyrimidin-5(2H)-ylidene)methyl)-1H-pyrrol-2-yl)-2-hydroxybenzoic Acid] showed a CC50 in [3] (setting [12]) greater than 300 µM. The compound further showed a CC50 in data set [1] greater than 20 µM. For the same compound, the EC50 in data set [2] (setting [11]) stood at 0.16 µM. Moreover, in [8], the SI selectivity index is on record as greater than 429.8, the EC90 stood at 7.47 µM and the EC50 was found to be 0.698 µM.

For `O=C(O)c1ccc(-c2ccc(CC3C(=O)NC(=S)N(CCc4ccccc4)C3=O)[nH]2)cc1O` (stereo not drawn) [Compound 18, 4-(5-((hexahydro-4,6-dioxo-1-phenethyl-2-thioxopyrimidin-5-yl)methyl)-1H-pyrrol-2-yl)-2-hydroxybenzoic Acid], the CC50 in data set [3] (setting [12]), in data set [3] (setting [13]) and in data set [6] was greater than 300 µM in each case. The values for the SI selectivity index in [5], in [8] and in [9] were greater than 849.8, greater than 417.2 and greater than 238, respectively. The values for the EC50 in data set [5], in [8] and in [9] were 0.0353 µM, 0.712 µM and 1.26 µM, respectively. Further, the EC90 in data set [5] worked out at 0.308 µM; in data set [8], 0.128 µM; in [9] it was 14.9 µM.

Regarding `O=C1NC(=S)N(CCc2ccc(O)cc2)C(=O)/C1=C\c1ccc(-c2ccc(C(=O)O)c(O)c2)[nH]1` [Compound 15f, (Z)-2-hydroxy-4-(5-((1-(4-hydroxyphenethyl)-4,6-dioxo-2-thioxotetrahydropyrimidin-5(2H)-ylidene)methyl)-1H-pyrrol-2-yl)benzoic Acid], the CC50 in [4] is 28 µM. In data set [7], this compound returned an SI selectivity index of 3.6 and an EC50 of 7.8 µM.

As for maraviroc [reference compound], the EC50 was 0.0367 µM in data set [10] (setting [14]) and greater than 20 µM in data set [2] (setting [14]).
